# pIC50: −log10 of the molar value.
# Experiments:
# HeLa = assay: Antiproliferative activity against human HeLa cells after 48 hrs by MTT assay; format: functional, cell-based
# [1] = Antiproliferative activity against human SGC7901 cells after 48 hrs by MTT assay; format: functional, cell-based; conditions: SGC-7901, 48 h
# SH-SY5Y = assay: Antiproliferative activity against human SH-SY5Y cells after 48 hrs by MTT assay; format: functional, cell-based
# K562 = assay: Antiproliferative activity against human K562 cells after 48 hrs by MTT assay; conditions: K562, 48 h
# [2] = Antiproliferative activity against human SMMC7721 cells after 48 hrs by MTT assay; format: functional, cell-based; conditions: SMMC-7721, 48 h
# LoVo = assay: Antiproliferative activity against human LoVo cells after 48 hrs by MTT assay; format: functional, cell-based
# MDA-MB-231 = assay: Antiproliferative activity against human MDA-MB-231 cells after 48 hrs by MTT assay; format: functional, cell-based; conditions: MDA-MB-231, 48 h
# A549 = assay: Antiproliferative activity against human A549 cells after 48 hrs by MTT assay; format: functional, cell-based; conditions: A549, 48 h
# SK-BR-3 = assay: Antiproliferative activity against human SK-BR-3 cells after 48 hrs by MTT assay; format: functional, cell-based; conditions: SK-BR-3, 48 h
pIC50 (HeLa),pIC50 (SH-SY5Y),pIC50 (K562),pIC50 (LoVo),pIC50 (MDA-MB-231),pIC50 (A549),pIC50 (SK-BR-3),SMILES,pIC50 [1],pIC50 [2]
4.87,4.74,5.89,4.32,4.69,4.93,,CCN(CC)CCOc1ccc(NC(=O)Nc2cc(OC)c(OC)c(-c3ccc(/C(C)=N/O)c(OC)c3)c2)cc1,4.24,4.44
3.61,4.74,4.80,,4.31,4.63,,COc1cc(-c2cc(NC(=O)Nc3ccc(OCCCN4CCOCC4)cc3C)cc(OC)c2OC)ccc1/C(C)=N/O,,4.48
,4.36,5.90,,,4.95,4.83,CCN(CC)CCOc1ccc(C)c(NC(=O)Nc2cc(OC)c(OC)c(-c3ccc(/C(C)=N/O)c(OC)c3)c2)c1,,
,,5.32,4.31,,,4.41,COc1cc(-c2cc(NC(=O)Nc3ccc(OCCN4CCCC4)cc3)cc(OC)c2OC)ccc1/C(C)=N/O,,
5.11,,,,,5.47,5.28,CNC(=O)c1cc(Oc2ccc(NC(=O)Nc3ccc(Cl)c(C(F)(F)F)c3)cc2)ccn1 [SORAFENIB],3.99,5.01
4.03,5.31,6.54,,,4.93,,COc1cc(-c2cc(NC(=O)Nc3ccc(OCCCN4CCOCC4)cc3)cc(OC)c2OC)ccc1/C(C)=N/O,5.17,5.01
4.20,5.21,5.07,,4.45,,,COc1cc(-c2cc(NC(=O)Nc3ccc(OCCN(C)C)cc3)cc(OC)c2OC)ccc1/C(C)=N/O,4.47,

# Source: ChEMBL document CHEMBL3217755, “Design, synthesis and biological evaluation of biphenyl urea derivatives as novel VEGFR-2 inhibitors” (Medchemcomm, 2013)
